Laboratory results taken from ChEMBL document CHEMBL5579799, “Synthesis and biological evaluation of novel 18F-labeled 2,4-diaminopyrimidine derivatives for detection of ghrelin receptor in the brain” (Bioorg Med Chem Lett, 2024).

What was measured:
[1] = target: Growth hormone secretagogue receptor type 1 (Homo sapiens, UniProt Q92847)
Description: Displacement of [125I]ghrelin from human GHSR assessed as inhibition constant by competitive binding assay

[2] = Ratio of drug concentration in rat brain to plasma at po administration measured after 1 hr

Sequence of Growth hormone secretagogue receptor type 1 (Q92847 whole entry): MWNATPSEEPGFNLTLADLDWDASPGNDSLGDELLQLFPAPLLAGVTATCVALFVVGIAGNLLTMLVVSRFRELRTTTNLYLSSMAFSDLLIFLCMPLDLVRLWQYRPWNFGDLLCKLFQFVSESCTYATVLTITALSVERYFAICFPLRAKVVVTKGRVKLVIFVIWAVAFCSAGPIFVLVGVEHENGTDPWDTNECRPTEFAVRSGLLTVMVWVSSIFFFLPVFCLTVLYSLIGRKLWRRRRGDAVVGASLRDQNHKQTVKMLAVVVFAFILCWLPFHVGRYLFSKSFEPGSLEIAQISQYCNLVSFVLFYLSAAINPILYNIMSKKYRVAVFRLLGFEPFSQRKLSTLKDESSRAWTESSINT

Molecule `Nc1nc(N)c(-c2ccc(NCc3ccc(Cl)cc3)cc2)c(COCc2ccccc2)n1` has a Ki [1] of 0.108 µM and a Kp at 1 h [2] of 3.05.

Work on `CCc1nc(N)nc(N)c1-c1ccc(NCc2ccc(OCCF)cc2)cc1` yielded a Ki [1] greater than 5 µM.
